# Experimental data reported in patent publication US5234822A, “Trypanosoma cruzi heparin-binding protein and antibodies thereto” (priority 1991, dated 1993).
# Columns and labels:
# [1] = test system: T. cruzi trypomastigotes adhering to glutaraldehyde-fixed Vero cells; assay: Inhibition of trypomastigote binding to Vero cells; type: cell-based, Trypanosoma cruzi; conditions: trypomastigotes preincubated 30 min at 37° C., binding 60 min
# Procedure: In these experiments attachment of trypomastigotes to Vero cell monolayers was measured as follows. Briefly, Vero cells were maintained in RPMI 1640 supplemented with heat-inactivated 1% Nu-serum (Collaborative Research Inc., Bedford, Mass.), penicillin (100 U/ml) and streptomycin ([…]). Unless noted otherwise, cells were maintained in plastic tissue culture flasks (150 cm^2, Bellco, Vineland, N.J.) and incubated at 37° C. in a humidified atmosphere containing 5% CO2 and 95% air. Cells were propagated every 1-2 weeks after trypsin-EDTA digestion (0.5 g trypsin, 0.2 g EDTA in HBSS without Ca^++ and Mg^++) in 16-well Lab-Tek® chamber slide™ (Nunc, Inc., Naperville, Ill.. Prior to binding experiments Vero cells were removed with trypsin and plated on 96-well tissue culture plates (Bellco, Vineland, N.J.) or in 16-well Lab-Tek® chamber slide™ at a density of 7.5×10^3 cells per well. After 24 h, the medium was removed, cells were washed twice with PBS, pH 7.2, and fixed for 5 min at 4° C. by addition of 2% glutaraldehyde (grade I, Sigma Chemical Co., St. Louis, Mo.) in PBS. Cell monolayers were washed twice with PBS, pH 7.2 and incubated overnight at 4° C. in 0.16M ethanolamine, pH 8.3 to block residual free […] amino groups. The next day, cell monolayers were washed three times with PBS as above, and two times with 1% BSA/RPMI-1640 and kept at least 1 h at 37° C. in the same medium.
# Trypomastigotes, [^35 S]-labeled as described above, were added to the cell monolayers in a total volume of 100 μl/well and the plates were incubated for 1 h at 37° C. Each well was then washed five times with 100 μl prewarmed PBS (pH 7.2). The [^35 S] label was solubilized with 2M NaOH and the bound radioactivity was determined in a liquid scintillation counter. Alternatively, unlabeled trypomastigotes were added to wells of a 16-well Lab-Tek® chamber slide™ and incubated as above. After removing the plastic chamber, the slide was washed by dipping 5 times in PBS (pH 7.2) and immersed upside-down in 4% paraformaldehyde in PBS, containing 7% sucrose. Finally, the slide was rinsed with PBS, stained with Diff-Quik®and the number of bound T. cruzi were determined by counting under light microscopy. For inhibition studies, trypomastigotes were preincubated 30 min at 37° C. with the appropriate proteoglycan in 100 μl of 1% BSA-RPMI- 1640 before addition to cell monolayers. Binding was determined in triplicate at each inhibitor concentration and in the absence of inhibitor.
# In this assay 100% binding was taken to 5 ×10^4 trypomastigotes/well bound in 60 min.
# [2] = test system: T. cruzi trypomastigotes infecting Vero cells; assay: Inhibition of T. cruzi infection of Vero cells; type: cell-based, Trypanosoma cruzi; conditions: for effect on infection: FIG. 4, even at high concentrations; for concentration causing 50% reduction of infection: FIG. 4, parasites preincubated 30 min, 2 h interaction, 3 days culture
# Procedure: In these experiments, cultured Vero cells were released with trypsin/EDTA, plated at 7.5×10^3 cells/well in 16-well Lab-Tek® chamber slides™ for 24 h, and used for infection at ~75% confluence. Trypomastigotes were harvested, washed with serum-free RPMI containing 1% BSA, and mixed with various concentrations of proteoglycans. After 30 min at 37° C., 5×10^5 parasites in a total volume of 100 μl were added to each well containing subconfluent cultures of Vero cells and allowed to interact for 2 h at 37° C. At the end of the incubation time, cell monolayers were rinsed three times with serum-free medium, and further incubated in RPMI-1640 containing 1% Nu-serum for 3 days at 37° C. Finally, monolayers were washed, stained with Diff-Quik®, and examined under a microscope to estimate the ratio of infected (i.e., Vero cell containing more than one intracellular amastigote) to non-infected Vero cells. In order to establish if the inhibitory effect was due to interaction of heparin and heparan sulfate with trypomastigotes rather than to Vero cells, parasites or host cells were preincubated with the putative inhibitors, washed extensively, and assayed for infection as above.
# [3] = test system: T. cruzi penetrin (60 kD trypomastigote heparin-binding protein), column-purified; assay: Binding of column-purified [125I]-labeled penetrin to heparin-Sepharose; parameters: species or system Trypanosoma cruzi; conditions: compound 100 μg/ml; Bovine Serum Albumin control 1.9
# Procedure: To determine if [^125 I]-labeled penetrin was still active in binding extracellular matrix proteins after isolation by heparin affinity chromatography, rebinding and inhibition of rebinding to heparin-Sepharosebeads was performed. Briefly, column purified [^125 I]-labeled penetrin was incubated with or without compounds and mixed with 100 μl of heparin-Sepharose. The mixture was incubated at room temperature for 2 h under slow rocking. The slurry was then centrifuged (500× g, 5 min), washed three times with PBS, and bound radioactivity determined in a gamma counter. Referring to FIG. 7, in the absence of competitors, column-purified [^125 I]-labeled penetrin retained its ability to bind heparin-Sepharose.
# For inhibition experiments, an aliquot of the purified heparin-binding protein was mixed with putative inhibitors for 1 h at room temperature, and the mixture added to 100 μl of heparin-Sepharose as above. The amount of [^125 I]-labeled protein retained by the agarose beads was assessed by elution of the protein with 1% SDS, SDS-polyacrylamide gel electrophoresis and autoradiography, and quantitated in a laser scanning densitometer (Pharmacia LKB, Ultroscan XL). One hundred percent binding was taken as the amount of protein retained by the heparin-Sepharose in the absence of added inhibitor. Referring to Table 2, adsorption of penetrin was inhibited by pre-incubation with soluble heparin, heparan sulfate or collagen, but not with other glycosaminoglycans (chondroitin sulfate and hyaluronic acid).
# [4] = test system: E. coli XL-1 Blue with clone HBP-6 expressing penetrin, entering Vero cells; assay: Penetrin-mediated entry of E. coli into Vero cells (gentamicin survival); type: cell-based, Escherichia coli; conditions: 250 μg/ml; for inhibition of penetration of bacteria: E. coli preincubated with inhibitor; for survival of bacteria after gentamicin: 4.3% without inhibitor
# Procedure: E. coli expressing penetrin are able to enter nonphagocytic mammalian cells which normally exclude E. coli. […] Recombinant bacteria were grown overnight at 37°, washed twice in PBS, resuspended at 10^8 cells/ml, and aliquots of 2×10^7 E coli were added to monolayers of 2×10^5 Vero cells per microliter well in 1 ml of RPMI 1640 medium containing 1% BSA. Bacteria were centrifuged onto the cell monolayer, and the cultures were incubated at 37° for 3 h in a 5% CO2 /95% air atmosphere, washed three times with sterile PBS, and incubated for an additional 1.5 h at 37° C. in RPMI 1640 medium containing 1% BSA and 75 μg/ml gentamicin (to kill bacteria bound to outer membrane). The monolayers were then washed three times in sterile PBS, and lysed with 0.5% Triton X-100 in deionized water to release internalized bacteria, which were quantitated in agar plates.
# [5] = test system: T. cruzi penetrin (60 kD trypomastigote heparin-binding protein), column-purified; assay: Binding of column-purified [125I]-labeled penetrin to fibroblasts (Vero cells); parameters: species or system Trypanosoma cruzi
# Procedure: Binding of [^125 I]-labeled penetrin to Vero cells was assayed as follows. Vero cells, grown in multiwell plates to confluence as described above, were rinsed once with 1% BSA-RPMI-1640, and incubated at 37° C. with increasing concentrations of [^125 I]-labeled penetrin. After 1 h the medium was removed, cell monolayers were washed three times with PBS, solubilized with 100 μl of 2M NaOH, and the retained radioactivity measured in a gamma counter. For inhibition experiments, an aliquot of [^125 I]-labeled penetrin was preincubated with the potential inhibitors prior to adding to confluent cells, and processed as above.
# [6] = test system: T. cruzi trypomastigotes; assay: Trypomastigote binding to heparin- or collagen-coated wells; type: cell-based, Trypanosoma cruzi; conditions: soluble compound
# Procedure: Proteoglycans (dissolved in PBS) and collagen solubilized in 0.1N HCl and neutralized in PBS) were adsorbed onto plastic (Falcon 3912 polyvinylchloride 96-well microliter plates) by incubation overnight at 4° C. (Roberts et al., J. BioI. Chem. 264:9289, 1989). The unbound proteins were removed, the wells filled with 1% heat-treated BSA in PBS (56° C., 60 min and filtered in […] nitrocellulose filters to remove insoluble particles) and incubated for 1 h at room temperature. The wells were then washed twice with PBS (pH 7.2) and rinsed with RPMI 1640 containing 1% BSA. T. cruzi trypomastigotes, labeled with [^35 S] methionine, were resuspended in RPMI-BSA and 100 μl of the suspension was applied to the wells. After various periods of incubation at 37° C., the wells were carefully washed three times with 37° C. PBS (pH 7.2). T. cruzi bound to the plastic-bound proteoglycans were then solubilized with 100 μ l of 2 M NaOH, mixed with Ultrafluor (National Diagnostics, Manville, N.J.), and assayed by liquid scintillation counting. Referring to FIG. 1a, adherence of trypomastigotes to heparin-coated plates increased linearly with the length of incubation up to about 60 min. In a separate experiment trypomastigotes were added for 60 min, but the number added was varied. […] In contrast, non-specific binding to BSA-coated wells was less than 2%.
Substance,% Vero Cells with Trypomastigotes ([1]; inhibitor 250 μg/ml) [%],effect on infection [2],Penetrin Bound [3] [cpm × 10^-3],effect on E. coli entry (in words) [4],% Inhibition of penetrin binding to fibroblasts ([5]; compound 250 μg/ml) [%],% Vero Cells with Trypomastigotes ([1]; inhibitor 125 μg/ml) [%],concentration causing 50% reduction of infection [2] [µg/mL],inhibition of binding of [125I]-labeled penetrin to Vero cell monolayers (in words) [5],% Inhibition of penetrin binding to fibroblasts ([5]; compound 5 μg/ml) [%],% Inhibition of penetrin binding to fibroblasts ([5]; compound 25 μg/ml) [%],% Inhibition of penetrin binding to fibroblasts ([5]; compound 50 μg/ml) [%],% Inhibition of penetrin binding to fibroblasts ([5]; compound 100 μg/ml) [%],inhibition of penetration of bacteria [4] [%],survival of bacteria after gentamicin [4] [%],inhibition of trypomastigote binding to coated wells (in words) [6]
Hyaluronic Acid,98,little effect on infection,1.8,without effect,–,–,–,–,–,–,–,–,–,–,–
Chondroitin Sulfate,96,little effect on infection,1.6,without effect,12,–,–,–,–,–,–,–,–,–,–
Heparin,12.5,–,0.7,–,91,50,100,inhiited,25,55,75,89,85,0.6,inhibited
Heparan Sulfate,18,–,0.75,–,65,60,1.5,inhiited,–,–,–,–,85,0.6,inhibited
